Reference: patent publication US9157077B2, “Aminopyrimidine kinase inhibitors” (Jasco Pharmaceuticals, LLC, priority 2009, dated 2015)
Like-named read-outs stand apart in the source and are kept apart here.

Tests used:
[1] = tested on: cell lines; assay: Selected cell proliferation inhibition data: cytotoxicity and IC50 determination (MTS/PMS, 72 hours), Tables 27 and 28; format: cell-based; settings: Homo sapiens; for inhibition at 30 µM: 30 μM compound; for IC50: 72 hours, MTS
Experimental: Selected Cell Proliferation Inhibition Data
All cells were cultured in media supplemented with 10% FBS except for which are marked specially, in the temperature of 37° C., 5% CO2 and 95% humidity. All culture media were purchased from GIBCO (USA, IMDM Cat. 12200-036; RPMI Medium 1640 Cat. 31800-022; 2-mercaptoethanol Cat. 21985-023).
• CellTiter 96® AQueous MTS reagent powder (Cat. No.: G11 12, Promega. Store MTS Reagent Powder desiccated at 4° C. protected from light.) • Phenazine methosulfate (PMS) (Product No.: P9625, SIGMA. Store PMS Powder desiccated at 4° C. protected from light.) Preparation of PMS Solution:
The following protocol is recommended for the preparation of 21 mL of MTS solution (sufficient for ten 96-well plates). • a. Select a light-protected container or wrap a container with foil. • b. Add 21 mL of DPBS to the container. • c. Weigh out 42 mg of MTS Reagent Powder and add to DPBS. • d. Mix at moderate speed on a magnetic stir plate for 15 minutes or until the MTS is completely dissolved. • e. Measure the pH of the MTS solution. The optimum pH is between pH 6.0 to 6.5. If the solution is above pH 6.5, adjust to pH 6.5 with 1N HC1. • f. Filter-sterilize the MTS solution through a 0.2 μm filter into a sterile, light protected container. • g. Store the MTS solution at −20° C., protected from light. Preparation of the Mixture of MTS/PMS: • a. In order to prepare reagents sufficient for one 96-well plate containing cells cultured in a 100 μL volume, thaw the MTS solution and the PMS solution. It should take approximately 90 minutes at room temperature or 10 minutes in a 37° C. water bath to completely thaw the 20 mL size of MTS solution. […] Remove 2.0 mL of MTS solution from the amber reagent bottle using aseptic technique and transfer to a test tube. • c. Add 100 μL of PMS solution to the 2.0 mL of MTS solution immediately before addition to the culture plate containing cells. • d. Gently swirl the tube to ensure complete mixing of the combined MTS/PMS solution. Equipment:
• 1. The cells were harvested respectively during the logarithmic growth period and counted with hemocytometer. The cell viability was over 98% by trypan blue exclusion. • 2. Cell concentrations were adjusted to 2.22×10^5 or 1.11×10^5 or 5.56×10^4 cells/mL with respective medium. • 3. 90 μL cell suspensions were added to 96-well plates (triplicates for each cell concentration), the final cell densities were 2×10^4 or 1×10^4 or 5×10^3 cells/well. The density of 5×10^3 cells/well was used for the first test. The appropriate cell density was determined and adjusted according to the results of the first test. • 4. The next day, test article or positive drugs were dissolved with DMSO as stock solution at the concentration of 20 mM. • 5. 10 μL drug solution was dispensed in each well (triplicate for each drug concentration). • 6. Plates were cultured for another 72 hours, then measured by means of MTS assay. • 7. MTS/PMS solution was prepared immediately prior to use. 20 μL of the mixture was introduced into each well of the 96-well assay plate containing 100 μL culture medium. (The final reaction volume was 120 μL). • 8. Plate was incubated for 1-4 hours at 37° C. in a humidified 5% CO2 atmosphere. • 9. Absorbance at 490 nm was recorded using SpectraMAX Plus microplate spectrophotometer. Data Analysis:
The software of GraphPad Prism version 5 was used to calculate IC50. The graphical curves were fitted using a nonlinear regression model with a sigmoidal dose.

[2] = target: T1, Enzyme (kinases of Table 30) (Homo sapiens, UniProt P68400); assay: IC50 of Compound (nM) (ATP present at Km of enzyme), Table 30; format: biochemical; settings: CK2(h), ATP present at Km of enzyme
T1 construct: IC50 of Compound, CK2(h); other: CK2(h), ATP present at Km of enzyme
T1 sequence (P68400 whole entry): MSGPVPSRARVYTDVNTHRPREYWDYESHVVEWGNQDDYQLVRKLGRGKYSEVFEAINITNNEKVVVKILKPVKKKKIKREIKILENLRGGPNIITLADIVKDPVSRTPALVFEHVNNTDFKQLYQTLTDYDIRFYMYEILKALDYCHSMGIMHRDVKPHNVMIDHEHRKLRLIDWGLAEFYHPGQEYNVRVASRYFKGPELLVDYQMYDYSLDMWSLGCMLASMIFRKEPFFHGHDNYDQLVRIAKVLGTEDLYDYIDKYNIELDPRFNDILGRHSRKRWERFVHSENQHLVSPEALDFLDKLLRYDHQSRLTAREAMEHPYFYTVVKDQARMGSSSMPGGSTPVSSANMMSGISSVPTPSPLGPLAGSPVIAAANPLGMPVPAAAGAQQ

[3] = target: Enzyme (kinases of Table 30) (Homo sapiens, UniProt Q86V86); assay: as above; format: biochemical
[4] = target: Enzyme (kinases of Table 30) (Homo sapiens, UniProt P11309); assay: as above; format: biochemical
Chain of Enzyme (kinases of Table 30) (Homo sapiens, UniProt P11309) (P11309 whole entry): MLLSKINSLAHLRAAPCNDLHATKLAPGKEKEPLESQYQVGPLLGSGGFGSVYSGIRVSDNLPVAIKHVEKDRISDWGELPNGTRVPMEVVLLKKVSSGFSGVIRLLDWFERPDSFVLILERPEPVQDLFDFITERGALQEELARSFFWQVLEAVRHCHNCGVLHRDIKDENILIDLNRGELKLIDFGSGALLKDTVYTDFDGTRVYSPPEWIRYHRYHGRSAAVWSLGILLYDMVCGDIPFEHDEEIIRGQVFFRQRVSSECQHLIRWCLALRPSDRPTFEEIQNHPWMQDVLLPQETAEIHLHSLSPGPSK

[5] = target: Enzyme (kinases of Table 30) (Homo sapiens, UniProt Q9P1W9); assay: as above; format: biochemical
Chain of Enzyme (kinases of Table 30) (Homo sapiens, UniProt Q9P1W9) (Q9P1W9 whole entry): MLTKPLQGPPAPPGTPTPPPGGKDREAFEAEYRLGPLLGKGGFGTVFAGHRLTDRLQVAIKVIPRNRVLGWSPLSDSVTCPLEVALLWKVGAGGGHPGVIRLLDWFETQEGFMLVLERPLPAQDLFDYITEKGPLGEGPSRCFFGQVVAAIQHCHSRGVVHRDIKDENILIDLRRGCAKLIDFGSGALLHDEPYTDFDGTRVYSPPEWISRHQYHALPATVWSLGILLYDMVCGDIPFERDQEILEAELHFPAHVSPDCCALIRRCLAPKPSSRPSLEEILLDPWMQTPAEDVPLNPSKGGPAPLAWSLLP

[6] = MV4-11 cell line, read-out: Percent inhibition at 30 μM of Compound, MV4-11
[7] = MV4-11 cell line, read-out: IC50 values, MV4-11
[8] = NCI-H929 cell line, read-out: Percent inhibition at 30 μM of Compound, NCI-H929
[9] = NCI-H929 cell line, read-out: IC50 values, NCI-H929
[10] = RPMI 8226 cell line, read-out: Percent inhibition at 30 μM of Compound, RPMI 8226
[11] = RPMI 8226 cell line, read-out: IC50 values, RPMI 8226
[12] = Pim-3(h), ATP present at Km of enzyme, read-out: IC50 of Compound, Pim-3(h)
[13] = Pim-1(h), ATP present at Km of enzyme, read-out: IC50 of Compound, Pim-1(h)
[14] = Pim-2(h), ATP present at Km of enzyme, read-out: IC50 of Compound, Pim-2(h)

IC50 [3, 12] [nM]	IC50 [4, 13] [nM]	IC50 [5, 14] [nM]	Structure (SMILES)	inhibition at 30 µM [1, 6] [%]	IC50 [1, 7] [µM]	inhibition at 30 µM [1, 8] [%]	IC50 [1, 9] [µM]	inhibition at 30 µM [1, 10] [%]	IC50 [1, 11] [µM]	other results
			COc1cccc2ccc(CNCC3CCN(c4nccc(/C=C5\SC(=O)NC5=O)n4)CC3)nc12 [Example 189, (Z)-5-((2-(4-((((8-methoxyquinolin-2-yl)methyl)amino)methyl)piperidin-1-yl)pyrimidin-4-yl)methylene)thiazolidine-2,4-dione]	97.9	4.71	98.5	3.04	99.9	8.32	
9	78	18	O=C1NC(=O)/C(=C/c2ccnc(N[C@H]3CCCNC3)n2)S1 [compound 144]							IC50 [2]: 23 nM
22	96	87	O=C1NC(=O)/C(=C/c2ccnc(N3CCC(CNCc4ccncc4)CC3)n2)S1 [compound 177]							IC50 [2]: 705 nM
109	99	217	O=C1NC(=O)/C(=C/c2ccnc(N3CCC(CNCc4cccc(-c5ccc(F)cc5)n4)CC3)n2)S1 [compound 204]							
			O=C1NC(=O)/C(=C/c2ccnc(N3CCC(CNCc4ccc5cc(F)ccc5n4)CC3)n2)S1 [Example 191, (Z)-5-((2-(4-((((6-fluoroquinolin-2-yl)methyl)amino)methyl)piperidin-1-yl)pyrimidin-4-yl)methylene)thiazolidine-2,4-dione]	87.4	2.4	94	3.26	93.1	6.86	
			Nc1cccc2c1CCN(c1nccc(/C=C3\SC(=O)NC3=O)n1)C2 [Example 120, (Z)-5-((2-(5-amino-3,4-dihydroisoquinolin-2(1H)-yl)pyrimidin-4-yl)methylene)thiazolidine-2,4-dione]	95.1	4.05	89.8	2.81	76.4	1.54	
			Cc1ccc(N2CCN(c3nccc(/C=C4\SC(=O)NC4=O)n3)CC2)cc1 [Example 9, (Z)-5-((2-(4-(p-tolyl)piperazin-1-yl)pyrimidin-4-yl)methylene)thiazolidine-2,4-dione]	91.1	6.78	91.4	11.5	71.2	16.1	
46	157	142	O=C1NC(=O)/C(=C/c2ccnc(N3CCC(CNCc4ccccn4)CC3)n2)S1 [compound 172]							
38	54	199	O=C1NC(=O)/C(=C/c2ccnc(N3CCC(CNCc4cccc(-c5cccs5)n4)CC3)n2)S1 [compound 205]							
			O=C1NC(=O)/C(=C/c2ccnc(NC3CNc4ccccc4C3)n2)S1 (stereo not drawn) [Example 140, (Z)-5-((2-((1,2,3,4-tetrahydroquinolin-3-yl)amino)pyrimidin-4-yl)methylene)thiazolidine-2,4-dione]	94.3	5.51	96.7	8.84	65.3	11.2	
16	58	75	Cc1cccc(CNCC2CCN(c3nccc(/C=C4\SC(=O)NC4=O)n3)CC2)n1 [compound 174]							
5	6	23	O=C1NC(=O)/C(=C/c2ccnc(N3CCC(CNCc4ccc5cc(F)ccc5n4)CC3)n2)S1 [compound 191]							
199	137	18	CC1CC(C)CN(c2nccc(/C=C3\SC(=O)NC3=O)n2)C1 (stereo not drawn) [compound 99]							
			O=C1NC(=O)/C(=C/c2ccnc(N3CCC(CNCc4nccc5ccccc45)CC3)n2)S1 [Example 182, (Z)-5-((2-(4-(((isoquinolin-1-ylmethyl)amino)methyl)piperidin-1-yl)pyrimidin-4-yl)methylene)thiazolidine-2,4-dione]	91.1	2.02	96.5	7.08	90.2	11.9	
			O=C1NC(=O)/C(=C/c2ccnc(N3CCC(CNCc4ccc5ccccc5n4)CC3)n2)S1 [Example 180, (Z)-5-((2-(4-(((quinolin-2-ylmethyl)amino)methyl)piperidin-1-yl)pyrimidin-4-yl)methylene)thiazolidine-2,4-dione]	90.7	11	100	10.9	79.7	9.13	
34	79	44	Cc1cc(CNCC2CCN(c3nccc(/C=C4\SC(=O)NC4=O)n3)CC2)c2ccccc2n1 [compound 181]							
231	> 1000	104	NCc1cccc(CNc2nccc(/C=C3\SC(=O)NC3=O)n2)c1 [compound 159]							
15	13	15	O=C1NC(=O)/C(=C/c2ccnc(N3CCC(CNCc4ccc5ccccc5n4)CC3)n2)S1 [compound 180]							
436	164	50	CC1CCCN(c2nccc(/C=C3\SC(=O)NC3=O)n2)C1 (stereo not drawn) [compound 117]							
			O=C1NC(=O)/C(=C/c2ccnc(N3CCCC4NCCCC43)n2)S1 (stereo not drawn) [compound 155]							IC50 [3]: 9 nM; IC50 [4]: 19 nM; IC50 [5]: 14 nM
			O=C1NC(=O)/C(=C/c2ccnc(N3CCCC4NCCCC43)n2)S1 (stereo not drawn) [Example 155, (Z)-5-((2-(octahydro-1,5-naphthyridin-1(2H)-yl)pyrimidin-4-yl)methylene)thiazolidine-2,4-dione]	97.6	12.5	73.7	3.96	53.9		
			COc1cccc(CNCC2CCN(c3nccc(/C=C4\SC(=O)NC4=O)n3)CC2)n1 [Example 183, (Z)-5-((2-(4-((((6-methoxypyridin-2-yl)methyl)amino)methyl)piperidin-1-yl)pyrimidin-4-yl)methylene)thiazolidine-2,4-dione]	94.4		98.6	4.6	82.3	9.6	
			Cc1cc(CNCC2CCN(c3nccc(/C=C4\SC(=O)NC4=O)n3)CC2)c2ccccc2n1 [Example 181, (Z)-5-((2-(4-((((2-methylquinolin-4-yl)methyl)amino)methyl)piperidin-1-yl)pyrimidin-4-yl)methylene)thiazolidine-2,4-dione]	96.6	1.2	93.5	4.42	82.2	3.41	
